Results: patent US20230082611A1, “COMPOSITIONS AND METHODS FOR THE TREATMENT OF RESPIRATORY SYNCYTIAL VIRUS” (Cidara Therapeutics, Inc., priority 2019, published 2023)
Like-named read-outs stand apart in the source and are kept apart here.

Tests used:
RSV Long strain = assay: RSV microneutralization assay, RSV Long strain; type: cell-based; conditions: read-out: RSV Long EC50
Method: (§1) Duplicate 10-fold serial dilutions of compound in DMEM with 2% HI-FBS, 1× P/S, 2 mM L-Gln were prepared in 96-well tissue culture plates at 60 μL/well. The RSV Long strain (RetroVirox, San Diego), RSV A2 strain (Virapur, San Diego), RSV B1 strain (RetroVirox, San Diego), or RSV strain CH18537 (RetroVirox, San Diego), were diluted in DMEM with 2% HI-FBS, 1× P/S, 2 mM L-Gln and 60 μL/well added to 60 μL compound for a multiplicity of infection (MOI) of 0.002 (Long, A2), 0.003 (B1), or 0.004 (CH18537). Virus only (no drug) and cells only (no virus, no drug) controls were included on each plate. The compound-virus mix was incubated for 1 h at 37° C. and 5% CO2. After 1 h, medium was removed from HEp-2 cells by aspiration and wells washed once with 100 μL/well 1×PBS pH 7.4 (Fisher cat #MT21040CM). The compound-virus mix (100 μL/well) was added to the cells and incubated for 1 h at 37° C. and 5% CO2 prior to addition of 100 μL/well of DMEM with 2% HI-FBS, 1× P/S, 2 mM L-Gln (200 μL final vol) and incubation at 37° C. and 5% CO2. On day 6 post infection, supernatant was aspirated and cells fixed with 100 μL/well ice-cold 80% acetone in 1×PBS for 20 min at 4° C. The acetone was aspirated and plates air-dried for 20 min at room temperature. The plates were washed 3× with 200 μL/well 1×PBS, 0.05% Tween-20 (PBST) and blocked with 200 μL/well 5% non-fat dry milk (Fisher cat #50-195-952) in PBST for 1 h with shaking (500 rpm) on an orbital plate shaker. The blocking solution was discarded and cells incubated with 100 μL/well mouse anti-F protein antibody (MilliporeSigma cat #MAB8599) diluted 1:2,000 in diluent (blocking solution diluted 1:1 in 1×PBS pH 7.4) for 2 h with shaking. Plates were washed 5× with 300 μL/well PBST and incubated with 100 μL/well HRP-conjugated goat anti-mouse IgG antibody (SouthernBiotech cat #1030-05) diluted 1:1,000 in diluent for 1 h with shaking. Plates were washed 5× with 300 μL/well PBST and incubated with 100 μL/well TMB substrate (Fisher cat #BDB555214) for ˜5 min. The reaction was stopped with 100 μL/well 1N H2SO4. Absorbance was read at 450 nm with an EnSpire multimode plate reader (PerkinElmer). The mean A450 for the cells only control was subtracted from all A450 values, and the percent virus neutralisation calculated for each compound concentration, relative to the virus only control.

[1] = tested on: RSV (Respiratory Syncytial Virus strain A2); assay: RSV cytopathic effects (CPE) assay; type: cell-based; conditions: human respiratory syncytial virus
Method: The activity of anti-RSV compounds and conjugates was determined using an in vitro cell-based assay following a standard protocol in the field. Briefly, ten four-fold serial dilutions of each test article (TA) starting at 10 μM were prepared in duplicate and incubated with RSV (Respiratory Syncytial Virus strain A2) at a multiplicity of infection (MOI) of 0.01, for one hour. The RSV-TA mix was then added to HEp-2 cells seeded in 96-well plates and incubated for one hour.

[2] = Inherent cytotoxicity run in parallel with the CPE assay (CellTiter-Glo); type: cell-based; conditions: human, HEp-2 cells, 4 days post treatment
Method: (§2) In parallel with the CPE assay, the inherent cytotoxicity of several test articles was also determined. Briefly, ten four-fold serial dilutions of each TA starting at 10 μM were prepared in triplicate for inoculation with HEp-2 cells in 96-well culture plates. The cell viability was determined four days post treatment using CellTiter-Glo kit.

HEp-2 cells = assay: as above; type: cell-based; conditions: 4 days post treatment, DMSO, value in %
Method: as §2

RSV A2 strain = assay: RSV microneutralization assay, RSV A2 strain; type: cell-based; conditions: MOI 0.002, HEp-2 cells, day 6
Method: as §1, with “HEp-2 cells (ATCC #CCL-23) were seeded at 5E4/well/200 μL in DMEM (Fisher cat #11965118) supplemented with 10% heat-inactivated (HI) fetal bovine serum (HI-FBS; Fisher cat #10-082-147), 1× penicillin-streptomycin (P/S, 100 μg/mL; Fisher cat #MT30002C), and 1× L-glutamine (L-Gln, 2 mM; Fisher cat #25030-164) in 96-well tissue culture treated plates (Fisher cat #08-772-17) and incubated overnight at 37° C. and 5% CO2. Duplicate” for “Duplicate”

RSV B1 strain = assay: RSV microneutralization assay, RSV B1 strain; type: cell-based; conditions: human respiratory syncytial virus; MOI 0.003, HEp-2 cells, day 6
Method: (§3) HEp-2 cells (ATCC #CCL-23) were seeded at 5E4/well/200 μL in DMEM (Fisher cat #11965118) supplemented with 10% heat-inactivated (HI) fetal bovine serum (HI-FBS; Fisher cat #10-082-147), 1× penicillin-streptomycin (P/S, 100 μg/mL; Fisher cat #MT30002C), and 1× L-glutamine (L-Gln, 2 mM; Fisher cat #25030-164) in 96-well tissue culture treated plates (Fisher cat #08-772-17) and incubated overnight at 37° C. and 5% CO2. Duplicate 10-fold serial dilutions of compound in DMEM with 2% HI-FBS, 1× P/S, 2 mM L-Gln were prepared in 96-well tissue culture plates at 60 μL/well. The RSV Long strain (RetroVirox, San Diego), RSV A2 strain (Virapur, San Diego), RSV B1 strain (RetroVirox, San Diego), or RSV strain CH18537 (RetroVirox, San Diego), were diluted in DMEM with 2% HI-FBS, 1× P/S, 2 mM L-Gln and 60 μL/well added to 60 μL compound for a multiplicity of infection (MOI) of 0.002 (Long, A2), 0.003 (B1), or 0.004 (CH18537). Virus only (no drug) and cells only (no virus, no drug) controls were included on each plate. The compound-virus mix was incubated for 1 h at 37° C. and 5% CO2. […] Absorbance was read at 450 nm with an EnSpire multimode plate reader (PerkinElmer). The mean A450 for the cells only control was subtracted from all A450 values, and the percent virus neutralisation calculated for each compound concentration, relative to the virus only control.

RSV strain CH18537 = assay: RSV microneutralization assay, RSV strain CH18537; type: cell-based; conditions: human respiratory syncytial virus; MOI 0.004, HEp-2 cells, day 6
Method: as §3

RSV = conditions: prophylactic use; cited from earlier work
[3] = human respiratory syncytial virus, MOI 0.002, HEp-2 cells, day 6
[4] = 96 h, RSV A2, MOI 0.01, HEp-2 cells, day 4, crystal violet, average of duplicate wells, read-out: EC50
[5] = human respiratory syncytial virus
[6] = human respiratory syncytial virus, HEp-2, […]

C#CCOCCOCCOCCOCCC(=O)NCCCCn1c(CN2C(=O)C3(CCN(C(=O)OC(C)C)CC3)c3ccncc32)nc2cc(Cl)ccc21 [Int-34]
EC50 (RSV Long strain; [3]): 0.13 nM

C#CCOCCOCCOCCOCCOCCOCCOCCCCN[C@H]1CCN(c2nc3cc([C@@H]4CCCCN4C(=O)c4cc(Cl)ccc4NS(C)(=O)=O)nn3cc2C)C1 [Int-05]
EC50 (RSV Long strain; [3]): > 1000 nM

C#CCOCCOCCOCCOCCN[C@H]1CCN(c2nc3cc(C4CCCCN4C(=O)c4cc(Cl)ccc4NS(C)(=O)=O)nn3cc2C)C1 (some centres unmarked) [Int-7]
EC50 [1, 4]: 0.353 nM
CC50 at 4 days [2]: 10400 nM
EC50 (RSV Long strain; [3]): 18 nM

C#CCOCCOCCOCCOCCC(=O)N[C@@H](CS(=O)(=O)O)C(=O)N1CCN(CCCN[C@H]2CCN(c3nc4cc([C@@H]5CCCCN5C(=O)c5ccc(Cl)cc5NS(C)(=O)=O)nn4cc3C)C2)CC1 [Int-23]
EC50 (RSV Long strain; [3]): > 1000 nM

C[S+](C)[O-] [DMSO]
CC50 (HEp-2 cells): 1.17%

C#CCOCCOCCNC(=N)N[C@H]1CCN(c2nc3cc([C@@H]4CCCCN4C(=O)c4cc(Cl)ccc4NS(C)(=O)=O)nn3cc2C)C1 [Int-6]
EC50 [1, 4]: 2200 nM

C#CCOCCOCCOCCOCCN1CCN(CCCCN[C@H]2CCN(c3nc4cc([C@@H]5CCCCN5C(=O)c5cc(Cl)ccc5NS(C)(=O)=O)nn4cc3C)C2)CC1 [Int-24]
EC50 (RSV Long strain; [3]): > 1000 nM

Cc1cn2nc([C@@H]3CCCCN3C(=O)c3cc(Cl)ccc3NS(C)(=O)=O)cc2nc1N1CC[C@H](N)C1 [Presatovir, reference compound]
EC50 [1, 4]: 0.0769 nM
EC50 (RSV Long strain; [3]): 0.0084 nM
EC50 (RSV A2 strain; [5]): 0.014 nM
EC50 (RSV B1 strain): 0.82 nM
EC50 (RSV strain CH18537): 0.32 nM

C#CCOCCOCCOCCOCCn1c(CN2C(=O)C3(CCN(C(=O)OC(C)(C)C)CC3)c3ccncc32)nc2cc(Cl)ccc21 [Int-41]
EC50 (RSV Long strain; [3]): 14 nM
EC50 (RSV A2 strain; [5]): 15 nM
EC50 (RSV B1 strain): 3.6 nM

Palivizumab
EC50 (RSV Long strain; MOI 0.002, HEp-2 cells, day 6): 17 nM
EC50 (RSV A2 strain): 21 nM
effective at reducing hospitalization rates (RSV): 60%

NC(=O)c1ncn([C@@H]2O[C@H](CO)[C@@H](O)[C@H]2O)n1 [Ribavirin, reference compound]
EC50 [1, 4]: 25800 nM
CC50 at 4 days [2]: 174000 nM

C#CCOCCOCCOCCOCCOCCOCCOCCOCCNC(=O)CN(CC(=O)NCCOCCOCCOCCOCCOCCOCCOCCOCCOCCOCCOCCOC)C(=O)CCCCN[C@H]1CCN(c2nc3cc(C4CCCCN4C(=O)c4cc(Cl)ccc4NS(C)(=O)=O)nn3cc2C)C1 (some centres unmarked) [Int-26]
EC50 (RSV Long strain; [3]): 170 nM

C#CCOCCOCCOCCOCCNCC1CN(c2nc3cc([C@@H]4CCCCN4C(=O)c4cc(Cl)ccc4NS(C)(=O)=O)nn3cc2C)C1 [Int-01]
EC50 (RSV Long strain; [6]): 98 nM

C#CCOCCOCCOCCOCCO[C@@H]1CN(c2nc3cc([C@@H]4CCCCN4C(=O)c4cc(Cl)ccc4NS(C)(=O)=O)nn3cc2C)C[C@H]1N [Int-04]
EC50 (RSV Long strain; [3]): > 1000 nM

C#CCOCCOCCOCCOCCC(=O)N(CC(=O)NCCOCCOCCOCCOCCOCCOCCOCCOCCOCCOCCOCCOC)CC(=O)NCCn1cc(COCCOCCOCCOCCOCCOCCOCCCCN[C@H]2CCN(c3nc4cc([C@@H]5CCCCN5C(=O)c5cc(Cl)ccc5NS(C)(=O)=O)nn4cc3C)C2)nn1 [Int-27]
EC50 (RSV Long strain; [3]): 200 nM

C#CCOCCOCCOCCOCCC(=O)NCCCCn1c(CN2C(=O)C3(CCN(C(=O)OC(C)(C)C)CC3)c3ccncc32)nc2cc(Cl)ccc21 [Int-35]
EC50 (RSV Long strain; [3]): 0.34 nM
EC50 (RSV A2 strain; [5]): 0.74 nM

C#CCOCCOCCOCCOCCN[C@@H]1CN(c2nc3cc([C@@H]4CCCCN4C(=O)c4cc(Cl)ccc4NS(C)(=O)=O)nn3cc2C)C[C@@H]1O [Int-03]
EC50 (RSV Long strain; [3]): > 1000 nM

C#CCOCCOCCOCCOCCN1CCN(CCCN[C@H]2CCN(c3nc4cc([C@H]5CCCCN5C(=O)c5cc(Cl)ccc5NS(C)(=O)=O)nn4cc3C)C2)CC1 [Int-10]
EC50 (RSV Long strain; [6]): 97 nM

C#CCOCCOCCOCCOCCOCCOCCOCCOCCNC(=O)CN(CC(=O)O)C(=O)CCCCN[C@H]1CCN(c2nc3cc([C@@H]4CCCCN4C(=O)c4cc(Cl)ccc4NS(C)(=O)=O)nn3cc2C)C1 [Int-25]
EC50 (RSV Long strain; [3]): 92 nM

Cc1nnnn1N=Cc1ccc(O)c(C(c2ccc(O)cc2)c2cc(C=Nn3nnnc3C)ccc2O)c1 (centres unmarked) [VP14637, MDT 637, reference compound]
EC50 (RSV Long strain; [3]): 0.09 nM

C#CCOCCOCCOCCOCCO[C@H]1CN(c2nc3cc([C@@H]4CCCCN4C(=O)c4cc(Cl)ccc4NS(C)(=O)=O)nn3cc2C)C[C@H]1N [Int-02]
EC50 (RSV Long strain; [3]): 110 nM

C#CCOCCOCCOCCOCCOCCOCCOCCOCCN[C@H]1CCN(c2nc3cc([C@@H]4CCCCN4C(=O)c4cc(Cl)ccc4NS(C)(=O)=O)nn3cc2C)C1 [Int-8]
EC50 ([1]; HEp-2, 96 h): 2.29 nM
EC50 (RSV Long strain; [6]): 43 nM

C#CCOCCOCCOCCOCCC(=O)N[C@H]1CCN(c2nc3cc([C@@H]4CCCCN4C(=O)c4cc(Cl)ccc4NS(C)(=O)=O)nn3cc2C)C1 [Int-9]
EC50 [1, 4]: 272 nM
CC50 at 4 days [2]: 49700 nM
EC50 (RSV Long strain; [3]): 1500 nM
